Values quoted from earlier work, collected in US20030013767A1, “Method of treating weight loss using creatine” (priority 2001, published 2003).

Experiments:
[1] = test system: animal models of neurologic diseases, such as amyotrophic lateral sclerosis
[2] = test system: severe deficiency of creatine in brain; conditions: oral, ten to twelve months
gyrate atrophy = gyrate atrophy patients

**Q.** Which therapeutic outcome [1] does the source give for `CN(CC(=O)O)C(=N)N` [creatine] here?
**A.** without success

**Q.** What about the toxicity ([2]; 4 grams/day (305-370 mg/kg/day) to 8 grams/day (600-740 mg/kg/day)) of the same compound?
**A.** no report of toxicity

**Q.** And the treatment outcome ([2]; 4 grams/day to 8 grams/day)?
**A.** some success

**Q.** What about the “effect on periocular muscles” value (gyrate atrophy) of the same compound?
**A.** slight strengthening of the periocular muscles

**Q.** And the “effect on the atrophy” value (gyrate atrophy)?
**A.** no effect on the atrophy
